Earlier results as cited in US20050049209A1, “Pharmaceutical compositions for delivering macrolides” (priority 2003, published 2005).

Settings: can be solubilized at pH<5 as salt

solubility in water: substantially insoluble
SMILES: CC[C@H]1OC(=O)[C@H](C)[C@@H](OC2CC(C)(OC)C(O)C(C)O2)[C@H](C)[C@@H](OC2OC(C)CC(N(C)C)C2O)[C@](C)(OC)C[C@@H](C)C(=O)[C@H](C)[C@@H](O)[C@]1(C)O (stereo partly shown) [Clarithromycin freebase, 6-O-methyl-erythromycin]
